Results published in patent US6673788B2, “Electrophilic ketones for the treatment of herpesvirus infections” (G. D. Searle & Co., priority 1996, dated 2004).
Where two headings read alike, the source gives them in different places.

Tests used:
[1] = molecular target: HCMV protease (Assemblin) (Human cytomegalovirus, UniProt P16753); test: Enzymatic assay for HCMV protease (assemblin) inhibitors; format: biochemical; conditions: pNA substrate, 30 min preincubation
Method: Assemblin protease activity was determined using a chromogenic para-nitroanilide (pNA) substrate based on the hCMV maturation cleavage site, succinyl-AGVVNA-para-nitroanilide. […] Potential protease inhibitors were dissolved in DMSO and 10 μL were added to the wells of a 96-well plate (Dynatech, Immulon 1). Enzyme was diluted to 4.8 μg/mL in assay buffer (10 mM sodium phosphate, pH 7.4, 150 mM sodium acetate, 0.1% CHAPS, 20% glycerol) and 100 μL were added to each well. Following a 30 minute incubation at room temperature, 50 μL substrate (1 part 20 mM succinyl-AGVVNA-paranitroanilide (SEQID:1) in DMSO plus 9 parts assay buffer) were added, and periodic readings taken in a microplate reader at 405 nm relative to 650 nm. Activities were expressed as milliabsorbance unit (mAU) change per minute. Inhibitor potency was determined by comparison with incubations lacking inhibitor, which under these conditions gave an increase of 0.5-1 mAU/min. No increase was seen when enzyme was omitted. Results [IC50 (μM)] are included in Table 1.
The construction also encoded six additional histidine residues at the amino terminus of the protease. These additional histidine residues provided an affinity ligand by which it was purified using nickel-nitriloacetic acid-agarose (Qiagen).
The purified protease was stored as a 1-3 mg/ml stock solution in 20 mM HEPES buffer, pH 7.4; containing 20% (v/v) glycerol. This stock was diluted with assay buffer to 4.8 μg/ml. A 100 μL aliquot of this solution was used in the enzyme reaction.
A specific substrate was synthesized based on the cleavage specificity of HCMV protease at the “maturation site” of the assembly protein (F. Liu and B. Roizman, J. Virol., 65, 5149 (1991), and A. Welch, et al, J. Virol., 65, 4091 (1991)). The assembly protein maturation site has the sequence . . . AGVVNA*SCRLATA . . .; the substrate used was succinyl-AGVVNA-PNA (SEQID:1) which was prepared by standard peptide synthetic methods such as that described in Bodansky and Bodansky, “The Practice of Peptide Synthesis” (1984), and was stored as a stock solution at 20 mM in dimethyl sulfoxide. This was diluted 10-fold with assay buffer to give a concentration of 2 mM just before use. An aliquot of 50 μL was used in the reaction
An assay Buffer (10 mM sodium phosphate buffer, pH 7.4; 150 mM sodium acetate; 0.1% CHAPS; and 20% (v/v) glycerol) was used to dilute stock solutions of enzyme and substrate.

[2] = molecular target: T1, Bovine pancreas α-chymotrypsin (Bos taurus, UniProt P00766, DEL14-15/DEL147-148); test: Chymotrypsin assay; format: biochemical
T1 construct: purchased Sigma type II; host or cells: bovine pancreas
Method: The chymotrypsin assay was modified from the method of Delmar et al [Anal. Biochem., 99, 316-320 (1979)]. Bovine pancreas α-chymotrypsin (type II, Sigma) was dissolved in 0.001 N HCl at 1 mg/ml and further diluted 1/600 in assay buffer (0.1 M Tris, pH 7.8, containing 0.1 M CaCl2) before use. 20 μl of test compound in DMSO (or DMSO alone), 100 μl of assay buffer and 30 μl of enzyme were added to 96 well plates, mixed and pre-incubated for 30 minutes at ambient temperature. Reaction was initiated by addition of 50 μl of 0.2 mM N-succinyl-Ala-Ala-Pro-Phe-p-nitroanilide (Sigma; 2 mM in DMSO diluted 1/10 in assay buffer before use). The increase in absorbance at 405 nm was monitored for 10 minutes with a Biotek EL340 plate reader.

[3] = system: human foreskin fibroblasts; format: cell-based
Source text: (§1) These complimentary assays tested the ability of a compound to inhibit the production of new virus and the toxicity of the compound to the host cells. It was important that both assays be performed simultaneously in order to compare the results directly since, toxicity may indirectly reduce viral yield.
Viral yield was estimated by measuring the amount of a viral antigen produced 4 days post infection with a monoclonal antibody to an abundant “immediate early” viral protein. An enzyme-linked (horseradish peroxidase) secondary antibody specific to the primary (mouse) antibody was used to measure the amount of viral antigen. Test compounds were diluted to 2-times the desired final concentration in DMEM+5% FBS. One hundred microliters of this solution was placed in each well of a 96-well plate. This was performed once for the antiviral 96-well plate and again for a cytotoxicity plate. Two controls were also included for both plates; a no drug control and a no virus control. Ganciclovir was routinely tested in antiviral and cytotoxicity plates as a reference standard because it has known antiviral activity for HCMV. All cells were prepared by harvesting human foreskin fibroblasts, with trypsin and re-suspending at a concentration of 5×10^5 cells per ml in DMEM. Infected cells were prepared by infecting these with HCMV (strain AD169) at a multiplicity of infection=0.2. One hundred microliters of uninfected cells (5×10^4 cells) were added to the appropriate wells of the cytotoxicity plate. In a similar manner 100 μl of infected cells (5×10^4 cells) were added to the appropriate wells of the antiviral plate. […]
In this assay, HCMV replication was monitored by the production of E. coli beta-galactosidase by the engineered virus RC256 [Spaete and Mocarski, Proc. Nat. […] The reaction was stopped with 100 μl 1M CAPS buffer, pH=11.0, per well and the optical density was read at 410 nanometers. Ganciclovir was used as a positive control and the EC50 was determined as described above for the HCMV ELISA. […]

[4] = system: human foreskin fibroblasts; format: cell-based; conditions: 96 h
Source text: as §1
Viral yield was estimated by measuring the amount of a viral antigen produced 4 days post infection with a monoclonal antibody to an abundant “immediate early” viral protein. An enzyme-linked (horseradish peroxidase) secondary antibody specific to the primary (mouse) antibody was used to measure the amount of viral antigen. Test compounds were diluted to 2-times the desired final concentration in DMEM+5% FBS. One hundred microliters of this solution was placed in each well of a 96-well plate. This was performed once for the antiviral 96-well plate and again for a cytotoxicity plate. Two controls were also included for both plates; a no drug control and a no virus control. Ganciclovir was routinely tested in antiviral and cytotoxicity plates as a reference standard because it has known antiviral activity for HCMV. All cells were prepared by harvesting human foreskin fibroblasts, with trypsin and re-suspending at a concentration of 5×10^5 cells per ml in DMEM. Infected cells were prepared by infecting these with HCMV (strain AD169) at a multiplicity of infection=0.2. […]

HCMV protease (Assemblin), sequence (P16753 1-256): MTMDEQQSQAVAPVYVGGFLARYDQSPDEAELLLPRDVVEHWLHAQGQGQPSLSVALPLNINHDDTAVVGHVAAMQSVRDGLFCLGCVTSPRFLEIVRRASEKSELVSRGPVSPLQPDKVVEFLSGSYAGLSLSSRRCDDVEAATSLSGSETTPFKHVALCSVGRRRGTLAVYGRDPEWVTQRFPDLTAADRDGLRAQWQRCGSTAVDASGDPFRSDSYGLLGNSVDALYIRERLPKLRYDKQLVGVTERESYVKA

Row | Structure (SMILES) | IC50 [1] [µM] | melting point [°C] | further results
1 | O=C(Nc1ccccc1C(=O)C(F)(F)F)c1ccco1 [Example 1, N-[2-(2,2,2-Trifluoro-1-oxoethyl)phenyl]furan-2-carboxamide] | 7.7 | – | Chymotrypsin % @ Conc. (μM) ([2]; @ 300 μM): 0% @ 300
2 | O=C(CCc1ccccc1)Nc1cc(F)ccc1C(=O)C(F)(F)F [Example 2, N-[5-Fluoro-2-(2,2,2-trifluoro-1-oxoethyl)phenyl]benzenepropanamide] | 5.3 | – | –
3 | O=C(CCc1ccccc1)Nc1ccccc1C(=O)C(F)(F)F [Example 4, N-[2-(2,2,2-Trifluoro-1-oxoethyl)phenyl]benzenepropanamide] | 49 | – | –
4 | O=C(Nc1ccccc1C(=O)C(F)(F)F)c1cnccn1 [Example 5, N-[2-(2,2,2-Trifluoro-1-oxoethyl)phenyl]pyrazine-2-carboxamide] | 3.7 | – | Antiviral Activity TD50 ([3]; 3 days): > 100 µM; Chymotrypsin % @ Conc. (μM) ([2]; @ 300 μM): 0% @ 300
5 | O=C(Nc1ccccc1C(=O)C(F)(F)F)OCc1ccccc1 [Example 6, Phenylmethyl N-[2-(2,2,2-trifluoro-1-oxoethyl)phenyl]carbamate] | 17 | – | –
6 | O=C(CCc1ccccc1)Nc1cc([N+](=O)[O-])ccc1C(=O)C(F)(F)F [Example 7, N-[5-Nitro-2-[2,2,2-trifluoro-1-oxoethyl)phenyl]benzenepropanamide] | – | – | Antiviral Activity TD50 [4]: > 100 µM
7 | O=C(Nc1ccccc1C(=O)C(F)(F)F)c1cc2ccccc2s1 [Example 9, N-[2-(2,2,2-Trifluoro-1-oxoethyl)phenyl]-1-benzothiophene-2-carboxamide] | 26 | – | Antiviral Activity TD50 ([3]; 3 days): > 100 µM; Chymotrypsin % @ Conc. (μM) ([2]; @ 100 μM): 48% @ 100
8 | O=C(Nc1ccccc1C(=O)C(F)(F)F)C(F)(F)F [Example 10, α,α,α-Trifluoro-N-[2-(2,2,2-trifluoro-1-oxoethyl)phenyl]acetamide] | – | – | Antiviral Activity TD50 (μM) [4]: >100/>100 μM
9 | O=C(Nc1ccc(I)cc1C(=O)C(F)(F)F)c1ccco1 [Example 13, N-[4-Iodo-2-(2,2,2-trifluoro-1-oxoethyl)phenyl]furan-2-carboxamide] | 8.3 | – | Antiviral Activity TD50 [3]: > 100 µM
10 | O=C(COc1ccc(Cl)cc1)Nc1ccccc1C(=O)C(F)(F)F [Example 14, N-[2-(2,2,2-Trifluoro-1-oxoethyl)phenyl]4-chlorophenoxyacetamide] | – | 134 to 135 | –
11 | O=C(Nc1ccccc1C(=O)C(F)(F)F)c1cc2ccccc2[nH]1 [Example 15, N-[2-(2,2,2-Trifluoro-1-oxoethyl)phenyl]indolyl-2-carboxamide] | – | 188 to 193 | –
12 | O=C(Nc1ccccc1C(=O)C(F)(F)F)c1cc2ccccc2o1 [Example 16, N-[2-(2,2,2-Trifluoro-1-oxoethyl)phenyl]benzofuranyl-2-carboxamide] | 36 | 130 to 132 | –
13 | COc1ccccc1C(=O)Nc1ccccc1C(=O)C(F)(F)C(=O)NC(C)C [Example 17, N-[2-(3-(2-Propylamino)-3-oxo-2,2-difluoro-1-oxopropyl)phenyl]2-methoxyphenylcarboxamide] | 8.5 | 131.5 to 132 | –
